Experimental findings from patent publication US12213978B2, “Madrasin-derivative compounds, composition and uses thereof for treating cancer” (INSTITUT GUSTAVE ROUSSY, priority 2018, dated 2025) are described below.

In test [1] the test system is MCA205 sarcoma cells expressing the intron-derived SL8 antigen. Description: T-cell assay: B3Z specific T-cell activation by MCA205 cells expressing the intron-derived SL8 antigen. Type of test: cell-based, mouse. Particulars: O/N. The procedure: (§1) MCA205 mouse sarcoma cell line is cultured at 37° C. under 5% CO2 in RPMI 1640 medium (Life Technologies) in the presence of 1% glutamine, 1% sodium pyruvate, 1% non-essential amino-acids, 1% penicillin/streptomycin and 10% FBS (Life Technologies). B16F10 mouse melanoma cell line is cultured at 37° C. under 5% CO2 in DMEM medium (Life Technologies) containing 1% glutamine, 1% penicillin/streptomycin and 10% FCS under standard conditions. Stable MCA205-Globin-SL8-intron cell line are cultured under the same condition as MCA205 cell line with additional 500 μg/ml G418 (Life Technologies) for selection. Stable B16F10-Globin-SL8-intron cell line are cultured under the same condition as B16F10 cell line with additional 500 μg/ml G418 (Life Technologies) for selection. The SL8/Kb-specific (B3Z) T-cell reporter hybridoma are cultured at 37° C. under 5% CO2 in RPMI 1640 medium (Life Technologies) in the presence of 1% L-glutamine, 1% penicillin/streptomycin, 50 μM β-mercaptoéthanol and 10% FCS.
(§2) MCA205 and B16F10 mouse cell lines are transfected with the plasmid YFP-Globin-SL8-intron or with the PCDNA3 empty plasmid (negative control) with the transfection reagent jetPRIME (Ozyme) or GeneJuice (Millipore) respectively according to each manufacturer protocol. Twenty-four hours after transfection, cells are treated with different doses of Madrasin (Sigma SML 1409), Madra.HCl (3·HCl) or the different compounds herein cited. Cells are then washed three times with PBS 1× and 5.10^4 tumor cells are co-cultured with 1.10^5 B3Z hybridoma in a 96-well plate. In positive control wells, 4 μg/ml of synthetic peptide SL8 is added. Cells are then incubated overnight at 37° C. with 5% CO2. The plate is centrifuged at 1200 rpm for 5 min, cells are washed twice with PBS 1× and lysed for 5 min at 4° C. under shaking in 0.2% TritonX-100, 0.2% DTT, 0.5M K2HPO4, 0.5M KH2PO4. The lysate is centrifuged at 3000 rpm for 10 min and the supernatant is transferred to a 96-well optiplate (OptiPlaque-96, PerkinElmer). A revelation buffer containing 10 mM MgCl2, 11.2 mM β-mercaptoethanol, 0.0015% IGEPAL® CA-630 and 40 μM 4-Methylumbelliferyl β-D-Galactopyranoside (MUG) in PBS is added and the plate is incubated at room temperature for 3 hours. Finally, the β-galactosidase activity is measured using the FLUOstar OPTIMA (BMG LABTECH Gmbh, 30 Offenburg, Germany). Results are expressed as mean±SEM. *P<0.05, **P<0.01, ***P<0.001 (unpaired student t test).

For test [2], the system named is B16F10 melanoma cells expressing the intron-derived SL8 antigen. Description: T-cell assay: B3Z specific T-cell activation by B16F10 cells expressing the intron-derived SL8 antigen. Particulars: O/N. The format is cell-based, mouse. As to the method: as §1, §2

`COc1ccc2c(C)nc(Nc3nc(C)c(C)c(=O)[nH]3)nc2c1S[C@H]1O[C@@H](CO)[C@H](O)[C@@H](O)[C@@H]1O` [EYP113, 2-((7-Methoxy-4-methyl-8-(((2R,3S,4R,5R,6S)-3,4,5-trihydroxy-6-(hydroxymethyl)tetrahydro-2H-pyran-2-yl)thio)quinazolin-2-yl)amino)-5,6-dimethylpyrimidin-4(3H)-one]: the “PTP-SL8 presentation (B3Z T-cell activation)” value (“PTP-SL8 presentation” for short) in test [1] (MCA205, 10 μM) is listed as “not see any increase”; in test [2] (B16F10, 10 μM) it was “not see any increase”.

On to `COc1ccc2c(C)nc(Nc3ccnc(OC)n3)nc2c1` [EYP190, 7-Methoxy-N-(2-methoxypyrimidin-4-yl)-4-methylquinazolin-2-amine], for which the “PTP-SL8 presentation” value in test [2] (B16F10, 60 μM) was “increase”.

In the case of `COc1ccc2c(C)nc(Nc3ccc(OC)nc3)nc2c1` [EYP174, 7-Methoxy-N-(6-methoxypyridin-3-yl)-4-methylquinazolin-2-amine], in test [2] (B16F10, 20 μM), the “PTP-SL8 presentation” value is reported as “increase”.

As to `COc1ccc2c(C)nc(Nc3nc(C)c(C)c(=O)[nH]3)nc2c1SC1OC(COC(C)=O)C(OC(C)=O)C(OC(C)=O)C1OC(C)=O` [EYP86, ((1S,2S,4R,5S,6S)-5-Acetoxy-7,8-diacetyl-4-((2-((4,5-dimethyl-6-oxo-1,6-dihydropyrimidin-2-yl)amino)-7-methoxy-4-methylquinazolin-8-yl)thio)-3,7λ^3,8λ^3-trioxabicyclo[4.2.0]octan-2-yl)methyl Acetate], the “PTP-SL8 presentation” value in test [1] (MCA205, 50 μM) is reported as “increase”.

With `COc1ccc2c(C)nc(Nc3nc(C)c(C)c(=O)[nH]3)nc2c1SCC(NC(C)=O)C(=O)O` (stereo not drawn) [EYP102, N-Acetyl-S-(2-((4,5-dimethyl-6-oxo-1,6-dihydropyrimidin-2-yl)amino)-7-methoxy-4-methylquinazolin-8-yl)cysteine], the “PTP-SL8 presentation” value was “not see any increase” in test [1] (MCA205, 20 μM) and “not see any increase” in test [2] (B16F10, 20 μM).

Take `COc1ccc2c(C)nc(Nc3cc(OC)c(OC)c(OC)c3)nc2c1` [EYP188, 7-Methoxy-4-methyl-N-(3,4,5-trimethoxyphenyl)quinazolin-2-amine]: the “PTP-SL8 presentation” value in test [1] (MCA205, 60 μM) is “increase”.

For the compound `COc1ccc2c(C)nc(Nc3c[nH]c4ccccc34)nc2c1` [EYP165, N-(1H-Indol-3-yl)-7-methoxy-4-methylquinazolin-2-amine], the “PTP-SL8 presentation” value was “increase” in test [1] (MCA205, 60 μM) and “increase” in test [2] (B16F10, 60 μM).

`COc1ccc2c(C)nc(Nc3cn(C(=O)OC(C)(C)C)c4ccccc34)nc2c1` [EYP177, t-Butyl 3-((7-methoxy-4-methylquinazolin-2-yl)amino)-1H-indole-1-carboxylate]: the “PTP-SL8 presentation” value is reported as “not see any increase” in test [1] (MCA205, 60 μM) and “not see any increase” in test [2] (B16F10, 60 μM).

As to `CNc1ccnc(Nc2nc(C)c3ccc(OC)cc3n2)n1` [EYP181, N^2-(7-Methoxy-4-methylquinazolin-2-yl)-N^4-methylpyrimidine-2,4-diamine], in test [2] (B16F10, 10 μM), the “PTP-SL8 presentation” value was “increase”.

For `COc1ccc2c(C)nc(Nc3ccc(C)cc3)nc2c1` [EYP156, 7-Methoxy-4-methyl-N-(p-tolyl)quinazolin-2-amine], the “PTP-SL8 presentation” value in test [1] (MCA205, 60 μM) is on record as “not see any increase”; in test [2] (B16F10, 60 μM), “not see any increase”.

Take `COc1ccc2c(C)nc(Nc3nccc(OC)n3)nc2c1` [EYP179, 7-Methoxy-N-(4-methoxypyrimidin-2-yl)-4-methylquinazolin-2-amine]: in test [2] (B16F10, 20 μM), the “PTP-SL8 presentation” value was “increase”.

As to `Cc1nc(Nc2nc(C)c3ccc(OCCN4CCOCC4)cc3n2)[nH]c(=O)c1C` [EYP201, 5,6-Dimethyl-2-((4-methyl-7-(2-morpholinoethoxy)quinazolin-2-yl)amino)pyrimidin-4(3H)-one], the “PTP-SL8 presentation” value in test [1] (MCA205, 20 μM) is “increase”; in test [2] (B16F10, 20 μM), “increase”.

`COc1ncc(Nc2ncc3ccccc3n2)cn1` [EYP281, N-(2-Methoxypyrimidin-5-yl)quinazolin-2-amine]: the “PTP-SL8 presentation” value in test [1] (MCA205, 50 μM) was “increase”; in test [2] (B16F10, 50 μM) it was “increase”.
